Source: patent US20110177950A1, “Imidazole and Triazole Compounds, Their Use and Agents Containing the Same” (priority 2008, published 2011)

Tests used:
Botrytis cinerea = assay: Comparison with the prior art: C1 activity against gray mold pathogen in the microtiter test; format: cell-based; conditions: day 7 after inoculation, 405 nm
Phakopsora pachyrhizi = assay: Curative activity against soybean rust (greenhouse, Example G1); format: in vivo; conditions: soybean seedlings, curative spray 300 ppm two days after inoculation, assessed after further 10 days; untreated 90% infected
Protocol: The active compounds were prepared separately as a stock solution comprising 25 mg of active compound which was made up to 10 ml using a mixture of acetone and/or DMSO and the emulsifier Uniperol® EL (wetting agent having emulsifying and dispersing action based on ethoxylated alkylphenols) in a volume ratio of solvent/emulsifier of 99/1. The mixture was then made up to 100 ml with water. This stock solution was diluted with the solvent/emulsifier/water mixture described to the active compound concentration stated below. Alternatively, the active compounds were used as commercially finished formulation and diluted with water to the stated active compound concentration.
Curative activity against soybean rust caused by Phakopsora pachyrhizi Leaves of potted soybean seedlings were inoculated with a spore suspension of soybean rust (Phakopsora pachyrhizi). The pots were then placed in a chamber with high atmospheric humidity (90 to 95%) and at 23 to 27° C. for 24 hours. During this time, the spores germinated and the germ tubes penetrated into the leaf tissue. The infected plants were then cultivated further in a greenhouse at temperatures between 23 and 27° C. and 60 to 80% relative atmospheric humidity. […] The extent of the rust fungus development on the leaves was then determined visually in % infection.

CC(C)(C)C(O)C(C/C=C/c1ccccc1)n1cncn1 (stereo not drawn) [reference compound]
Growth (%) at 8 ppm C1 (Botrytis cinerea): 84%

CC(=CCC(C(O)C(C)(C)C)n1cncn1)c1ccc(F)cc1F (mixture of isomers) [I.A9]
rust fungus development on the leaves in % infection (Phakopsora pachyrhizi): 0%

CC(C)(C)C(O)C(C/C=C/c1ccccc1F)n1cncn1 (stereo not drawn)
Growth (%) at 8 ppm C1 (Botrytis cinerea): 16%
